Results as given in ChEMBL document CHEMBL1144638, “Hydantoins, triazolones, and imidazolones as selective non-hydroxamate inhibitors of tumor necrosis factor-alpha converting enzyme (TACE)” (Bioorg Med Chem Lett, 2007).

Tests used:
[1] = molecular target: 72 kDa type IV collagenase (Homo sapiens, UniProt P08253); experiment: Binding affinity to MMP2
[2] = molecular target: Macrophage metalloelastase (Homo sapiens, UniProt P39900); experiment: Binding affinity to MMP12
Interstitial collagenase = molecular target: T1, Interstitial collagenase (Homo sapiens, UniProt P03956); experiment: Binding affinity to MMP1
T1 sequence (P03956 whole entry): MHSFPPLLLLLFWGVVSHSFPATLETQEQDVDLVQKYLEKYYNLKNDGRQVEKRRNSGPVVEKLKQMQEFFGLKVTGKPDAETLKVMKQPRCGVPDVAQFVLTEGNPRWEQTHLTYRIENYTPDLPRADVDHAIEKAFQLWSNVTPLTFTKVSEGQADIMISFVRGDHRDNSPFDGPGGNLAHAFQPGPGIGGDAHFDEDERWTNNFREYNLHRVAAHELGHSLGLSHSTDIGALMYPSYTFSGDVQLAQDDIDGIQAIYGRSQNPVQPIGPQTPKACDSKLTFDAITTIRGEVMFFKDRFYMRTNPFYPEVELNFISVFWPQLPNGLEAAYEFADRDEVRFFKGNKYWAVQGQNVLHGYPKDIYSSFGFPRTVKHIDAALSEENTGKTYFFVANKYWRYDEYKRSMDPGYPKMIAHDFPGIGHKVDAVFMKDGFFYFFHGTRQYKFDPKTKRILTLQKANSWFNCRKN

[3] = molecular target: Matrix metalloproteinase-9 (Homo sapiens, UniProt P14780); experiment: Binding affinity to MMP9
Stromelysin-1 = Stromelysin-1 (Homo sapiens, UniProt P08254); experiment: Binding affinity to MMP3
Matrilysin = molecular target: T2, Matrilysin (Homo sapiens, UniProt P09237); experiment: Binding affinity to MMP7
T2 sequence (P09237 whole entry): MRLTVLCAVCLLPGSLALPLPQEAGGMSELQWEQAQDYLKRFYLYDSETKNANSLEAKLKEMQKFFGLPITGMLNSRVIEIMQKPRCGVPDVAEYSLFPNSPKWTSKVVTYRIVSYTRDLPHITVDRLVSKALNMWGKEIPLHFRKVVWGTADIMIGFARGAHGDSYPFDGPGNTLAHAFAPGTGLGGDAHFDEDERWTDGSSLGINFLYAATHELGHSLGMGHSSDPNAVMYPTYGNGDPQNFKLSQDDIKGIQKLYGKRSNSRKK

Collagenase 3 = Collagenase 3 (Homo sapiens, UniProt P45452); experiment: Binding affinity to MMP13

Chain of Matrix metalloproteinase-9 (P14780 whole entry): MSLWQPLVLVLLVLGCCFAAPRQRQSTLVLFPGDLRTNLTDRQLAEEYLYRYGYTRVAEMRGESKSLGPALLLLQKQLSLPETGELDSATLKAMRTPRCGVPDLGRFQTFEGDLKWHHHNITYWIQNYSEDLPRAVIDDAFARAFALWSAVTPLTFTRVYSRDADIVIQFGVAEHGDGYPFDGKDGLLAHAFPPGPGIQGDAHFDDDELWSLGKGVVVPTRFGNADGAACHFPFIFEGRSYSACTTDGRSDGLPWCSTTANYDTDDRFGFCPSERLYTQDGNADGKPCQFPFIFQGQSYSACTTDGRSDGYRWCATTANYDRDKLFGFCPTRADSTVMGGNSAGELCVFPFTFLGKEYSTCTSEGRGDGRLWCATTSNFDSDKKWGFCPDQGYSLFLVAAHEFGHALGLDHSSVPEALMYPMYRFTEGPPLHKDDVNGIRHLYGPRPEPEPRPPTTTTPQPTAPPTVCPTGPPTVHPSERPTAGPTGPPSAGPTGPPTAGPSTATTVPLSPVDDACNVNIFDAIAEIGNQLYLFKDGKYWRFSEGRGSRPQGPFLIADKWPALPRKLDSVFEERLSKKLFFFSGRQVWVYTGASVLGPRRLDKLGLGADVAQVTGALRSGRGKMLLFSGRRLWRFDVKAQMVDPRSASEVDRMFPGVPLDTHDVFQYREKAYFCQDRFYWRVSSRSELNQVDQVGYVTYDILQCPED
Chain of Stromelysin-1 (P08254 whole entry): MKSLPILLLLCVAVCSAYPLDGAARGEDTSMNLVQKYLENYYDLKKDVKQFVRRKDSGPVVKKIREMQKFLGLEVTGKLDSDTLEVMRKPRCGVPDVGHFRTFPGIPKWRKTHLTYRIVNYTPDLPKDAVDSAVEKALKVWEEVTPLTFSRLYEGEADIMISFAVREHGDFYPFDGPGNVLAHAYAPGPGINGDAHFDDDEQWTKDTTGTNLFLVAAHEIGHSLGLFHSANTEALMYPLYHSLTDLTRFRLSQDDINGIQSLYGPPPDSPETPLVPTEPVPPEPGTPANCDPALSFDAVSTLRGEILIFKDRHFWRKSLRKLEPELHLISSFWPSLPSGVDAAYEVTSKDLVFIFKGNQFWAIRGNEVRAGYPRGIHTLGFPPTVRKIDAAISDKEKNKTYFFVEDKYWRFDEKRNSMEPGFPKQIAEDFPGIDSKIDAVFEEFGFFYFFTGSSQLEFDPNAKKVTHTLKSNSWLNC
Chain of Macrophage metalloelastase (P39900 whole entry): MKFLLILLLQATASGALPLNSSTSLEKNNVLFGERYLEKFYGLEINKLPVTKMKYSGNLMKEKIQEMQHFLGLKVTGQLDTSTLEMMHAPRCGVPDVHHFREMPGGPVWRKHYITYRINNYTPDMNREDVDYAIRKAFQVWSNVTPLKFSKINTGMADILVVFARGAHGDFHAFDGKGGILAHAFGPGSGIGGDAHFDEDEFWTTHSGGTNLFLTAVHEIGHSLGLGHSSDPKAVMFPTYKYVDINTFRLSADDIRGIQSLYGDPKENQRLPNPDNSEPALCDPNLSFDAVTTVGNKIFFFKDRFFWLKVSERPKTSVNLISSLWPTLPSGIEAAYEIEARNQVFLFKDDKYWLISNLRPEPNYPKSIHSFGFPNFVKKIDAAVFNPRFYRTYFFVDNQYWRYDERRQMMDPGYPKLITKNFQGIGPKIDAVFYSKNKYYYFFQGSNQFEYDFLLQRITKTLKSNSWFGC
Chain of 72 kDa type IV collagenase (P08253 whole entry): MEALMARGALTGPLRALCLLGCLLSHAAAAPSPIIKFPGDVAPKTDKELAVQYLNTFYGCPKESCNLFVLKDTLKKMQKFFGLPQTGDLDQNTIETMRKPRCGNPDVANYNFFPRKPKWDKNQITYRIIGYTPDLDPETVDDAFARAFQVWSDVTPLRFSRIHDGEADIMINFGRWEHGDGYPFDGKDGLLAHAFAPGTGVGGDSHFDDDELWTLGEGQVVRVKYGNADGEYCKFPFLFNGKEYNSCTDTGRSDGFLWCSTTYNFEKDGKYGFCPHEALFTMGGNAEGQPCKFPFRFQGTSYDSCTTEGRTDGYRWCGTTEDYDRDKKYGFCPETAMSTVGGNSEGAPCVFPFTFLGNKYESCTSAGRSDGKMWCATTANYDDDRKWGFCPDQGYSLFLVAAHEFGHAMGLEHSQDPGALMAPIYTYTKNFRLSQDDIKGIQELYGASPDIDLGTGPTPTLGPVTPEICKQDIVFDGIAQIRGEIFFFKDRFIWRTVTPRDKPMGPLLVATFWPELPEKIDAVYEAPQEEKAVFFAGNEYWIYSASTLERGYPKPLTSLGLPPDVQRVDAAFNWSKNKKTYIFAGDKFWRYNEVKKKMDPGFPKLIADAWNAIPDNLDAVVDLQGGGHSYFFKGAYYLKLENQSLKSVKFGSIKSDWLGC

Structure (SMILES)	Ki [1] [µM]	Ki [2] [µM]	Ki (Interstitial collagenase) [µM]	Ki [3] [µM]	Ki (Stromelysin-1) [µM]	Ki (Matrilysin) [µM]	Ki (Collagenase 3) [µM]
Cc1cc(COc2ccc(C(=O)NCc3n[nH]c(=O)[nH]3)cc2)c2ccccc2n1	> 3.33	> 5.03	> 4.95	> 2.13			
Cc1cc(COc2ccc(S(=O)(=O)NCc3n[nH]c(=O)[nH]3)cc2)c2ccccc2n1	2.47	4.12			0.567	1	> 5.03
Cc1cc(COc2ccc(C(=O)Nc3ccccc3C(=O)c3c[nH]c(=O)[nH]3)cc2)c2ccccc2n1	> 3.33	> 6.02			> 4.5	> 6.37	4.31
Cc1cc(COc2ccc(S(=O)(=O)NCC3(C)NC(=O)NC3=O)cc2)c2ccccc2n1 (stereo unspecified)	> 3.33	> 5.03	> 4.95	> 2.13			

Other lines, results leading:

Ki [1] [µM]	Ki [2] [µM]	Ki (Interstitial collagenase) [µM]	Ki [3] [µM]	Ki (Stromelysin-1) [µM]	Ki (Matrilysin) [µM]	Ki (Collagenase 3) [µM]	Structure (SMILES)
> 3.33	3.61			> 4.5	> 6.37	4.31	Cc1cc(COc2ccc(C(=O)Nc3ccccc3Cc3n[nH]c(=O)[nH]3)cc2)c2ccccc2n1
> 3.33	> 6.02			> 4.5	> 6.37	> 5.03	Cc1cc(COc2ccc(C(=O)Nc3ccccc3Cc3c[nH]c(=O)[nH]3)cc2)c2ccccc2n1
> 3.33	> 5.03	> 4.95	> 2.13				Cc1cc(COc2ccc(C(=O)NCC3(C)NC(=O)NC3=O)cc2)c2ccccc2n1 (stereo unspecified)
> 3.33	0.782			> 4.5	> 6.37	> 5.03	Cc1cc(COc2ccc(C(=O)Nc3ccccc3C3NC(=O)NC3=O)cc2)c2ccccc2n1 (stereo unspecified)
> 3.33	> 5.03	> 4.95	> 2.13				Cc1cc(COc2ccc(C(=O)N[C@H]3CN(C(=O)OC(C)(C)C)C[C@@H]3c3n[nH]c(=O)[nH]3)cc2)c2ccccc2n1
